According to patent publication US9434697B2, “Pyrimidine FGFR4 inhibitors” (priority 2013, dated 2016):
pIC50: −log10 of the molar value. Read-outs that look alike come from different tables or passages of the source.

Legend:
[1] = system: HEP3B tumor xenografts; type: in vivo
[2] = target: Recombinant FGFR1 (Homo sapiens (Human), UniProt P11362); test: Kinase HotSpot assay, IC50 profiling of kinase activity inhibition (FGFR1); type: biochemical; conditions: Table 1; 10 μM ATP
[3] = target: Recombinant FGFR4 (Homo sapiens (Human), UniProt P22455); test: Kinase HotSpot assay, IC50 profiling of kinase activity inhibition (FGFR4); type: biochemical; conditions: Table 1; 10 μM ATP
Sequence of Recombinant FGFR4 (P22455 22-802): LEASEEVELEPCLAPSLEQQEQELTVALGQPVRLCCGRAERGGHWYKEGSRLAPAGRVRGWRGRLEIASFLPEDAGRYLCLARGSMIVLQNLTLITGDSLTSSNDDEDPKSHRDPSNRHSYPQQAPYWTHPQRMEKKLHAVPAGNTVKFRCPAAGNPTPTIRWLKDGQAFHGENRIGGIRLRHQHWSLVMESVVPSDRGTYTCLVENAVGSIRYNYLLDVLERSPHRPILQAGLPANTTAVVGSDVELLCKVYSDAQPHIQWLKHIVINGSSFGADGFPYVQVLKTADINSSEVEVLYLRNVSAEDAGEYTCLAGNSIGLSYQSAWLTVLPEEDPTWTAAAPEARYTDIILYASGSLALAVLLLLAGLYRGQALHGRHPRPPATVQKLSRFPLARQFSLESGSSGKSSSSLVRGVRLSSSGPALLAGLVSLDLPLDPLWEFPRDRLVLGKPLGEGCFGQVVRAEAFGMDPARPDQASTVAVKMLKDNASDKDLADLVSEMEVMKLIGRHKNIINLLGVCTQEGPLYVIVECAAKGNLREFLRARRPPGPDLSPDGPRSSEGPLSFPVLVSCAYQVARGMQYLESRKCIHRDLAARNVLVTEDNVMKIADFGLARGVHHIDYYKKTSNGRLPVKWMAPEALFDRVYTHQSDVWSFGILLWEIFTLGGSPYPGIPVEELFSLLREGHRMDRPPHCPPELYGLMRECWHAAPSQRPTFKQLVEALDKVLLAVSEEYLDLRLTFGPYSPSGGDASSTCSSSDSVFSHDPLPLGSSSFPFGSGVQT

Sequence of Recombinant FGFR1 (P11362 22-822): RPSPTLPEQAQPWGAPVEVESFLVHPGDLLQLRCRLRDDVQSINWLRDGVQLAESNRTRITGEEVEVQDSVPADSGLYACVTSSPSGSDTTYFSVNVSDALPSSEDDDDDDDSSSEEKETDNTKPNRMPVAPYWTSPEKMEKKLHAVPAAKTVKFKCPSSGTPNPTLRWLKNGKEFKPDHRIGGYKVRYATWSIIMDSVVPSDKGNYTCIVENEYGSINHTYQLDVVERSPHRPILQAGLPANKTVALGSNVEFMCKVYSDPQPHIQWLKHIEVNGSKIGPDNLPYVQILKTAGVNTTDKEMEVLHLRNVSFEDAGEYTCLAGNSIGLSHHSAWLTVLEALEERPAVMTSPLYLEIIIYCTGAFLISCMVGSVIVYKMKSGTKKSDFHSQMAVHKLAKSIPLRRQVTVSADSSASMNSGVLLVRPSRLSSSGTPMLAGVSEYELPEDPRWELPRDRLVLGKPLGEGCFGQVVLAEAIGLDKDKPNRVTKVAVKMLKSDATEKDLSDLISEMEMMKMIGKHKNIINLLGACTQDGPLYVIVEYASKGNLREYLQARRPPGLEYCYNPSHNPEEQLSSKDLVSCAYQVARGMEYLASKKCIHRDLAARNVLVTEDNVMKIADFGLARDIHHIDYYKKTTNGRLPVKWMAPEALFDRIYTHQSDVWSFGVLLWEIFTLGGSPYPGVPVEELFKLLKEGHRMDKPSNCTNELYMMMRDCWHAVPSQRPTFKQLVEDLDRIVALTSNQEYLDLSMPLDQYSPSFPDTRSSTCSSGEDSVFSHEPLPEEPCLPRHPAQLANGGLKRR

CCN1CCN(c2ccc(Nc3cc(N(C)C(=O)Nc4c(Cl)c(OC)cc(OC)c4Cl)ncn3)cc2)CC1 [BGJ398]
tolerability (health of animals) ([1]; 30 mg/kg orally twice daily): did not exhibit poor health
comparative in vivo efficacy (tumor volume) ([1]; 60 mg/kg orally twice daily): efficacy comparable to compound 108
tolerability (health of animals) ([1]; 60 mg/kg orally twice daily): terminated on Day 11 due to poor health of animals

C=CC(=O)Nc1cc(N2CCN(CC)CC2)ccc1Nc1cc(N(C)C(=O)Nc2c(Cl)c(OC)cc(OC)c2Cl)ncn1 [Example 108, N-(2-(6-(3-(2,6-Dichloro-3,5-dimethoxyphenyl)-1-methylureido)pyrimidin-4-ylamino)-5-(4-ethylpiperazin-1-yl)phenyl)acrylamide]
comparative in vivo efficacy (tumor volume) ([1]; 25, 37.5 or 50 mg/kg i.p. twice daily, 18 days): more efficacious than BGJ398 at tolerable dosage levels

C=CC(=O)Nc1ccccc1Nc1cc(N(C)C(=O)Nc2cc(OC)cc(OC)c2)ncn1 [Example 102]
pIC50 [2]: < 5.00
pIC50 [3]: 6.07
